Key:
[1] = test system: THP-1; assay: THP-1 GI50 (Table 4, method not given); type: cell-based; conditions: Homo sapiens; THP-1 cells
[2] = test system: TNF-α; assay: TNF-α secretion inhibition in LPS-treated THP-1 cells (ELISA); type: cell-based; conditions: Homo sapiens, compound 0.5 μM, LPS 500 ng/ml, 24 hours, read-out: THP-1/TNF-a (% inhib)
Outline: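 Human monocytic THP-1 cells were pre-cultured 16 h at 37° C., then treated with compound at 0.5 μM final, followed by LPS at 500 ng/ml final. After 24 h, IL-6 and TNF-α in culture supernatant were quantified by ELISA with absorbance read at 450 nm.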

[3] = biological target: T1, DYRK2 (Homo sapiens, UniProt Q92630); assay: scanMAX Kinase panel (DiscoverX), % control; type: binding; conditions: <35% = active
T1 construct: purchased DiscoverX
T1 sequence (Q92630 1-601): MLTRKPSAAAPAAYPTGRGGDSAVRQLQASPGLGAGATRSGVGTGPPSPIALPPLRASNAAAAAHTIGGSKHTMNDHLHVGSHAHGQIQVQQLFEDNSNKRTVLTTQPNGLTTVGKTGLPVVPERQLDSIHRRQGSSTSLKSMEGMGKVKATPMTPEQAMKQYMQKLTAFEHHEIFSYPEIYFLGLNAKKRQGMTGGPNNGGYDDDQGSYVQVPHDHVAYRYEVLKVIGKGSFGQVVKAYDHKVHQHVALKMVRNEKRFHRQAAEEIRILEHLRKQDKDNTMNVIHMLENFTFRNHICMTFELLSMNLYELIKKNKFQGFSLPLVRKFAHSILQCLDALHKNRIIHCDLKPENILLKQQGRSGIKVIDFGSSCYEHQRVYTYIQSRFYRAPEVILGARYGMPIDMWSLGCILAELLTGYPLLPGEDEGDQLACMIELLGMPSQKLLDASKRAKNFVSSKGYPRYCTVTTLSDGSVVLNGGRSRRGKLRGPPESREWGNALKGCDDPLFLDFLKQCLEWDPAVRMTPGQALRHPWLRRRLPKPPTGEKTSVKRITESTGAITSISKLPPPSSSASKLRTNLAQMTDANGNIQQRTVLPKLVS
Outline: (§1)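 Tested at 1 uM in DMSO across scanMAX kinases; % control referenced to vehicle and positive control, hit threshold <35%.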

[4] = biological target: T2, GAK (Homo sapiens, UniProt O14976); assay: scanMAX Kinase panel (DiscoverX), % control; type: binding; conditions: <35% = active
T2 construct: purchased DiscoverX
T2 sequence (O14976 1-1311): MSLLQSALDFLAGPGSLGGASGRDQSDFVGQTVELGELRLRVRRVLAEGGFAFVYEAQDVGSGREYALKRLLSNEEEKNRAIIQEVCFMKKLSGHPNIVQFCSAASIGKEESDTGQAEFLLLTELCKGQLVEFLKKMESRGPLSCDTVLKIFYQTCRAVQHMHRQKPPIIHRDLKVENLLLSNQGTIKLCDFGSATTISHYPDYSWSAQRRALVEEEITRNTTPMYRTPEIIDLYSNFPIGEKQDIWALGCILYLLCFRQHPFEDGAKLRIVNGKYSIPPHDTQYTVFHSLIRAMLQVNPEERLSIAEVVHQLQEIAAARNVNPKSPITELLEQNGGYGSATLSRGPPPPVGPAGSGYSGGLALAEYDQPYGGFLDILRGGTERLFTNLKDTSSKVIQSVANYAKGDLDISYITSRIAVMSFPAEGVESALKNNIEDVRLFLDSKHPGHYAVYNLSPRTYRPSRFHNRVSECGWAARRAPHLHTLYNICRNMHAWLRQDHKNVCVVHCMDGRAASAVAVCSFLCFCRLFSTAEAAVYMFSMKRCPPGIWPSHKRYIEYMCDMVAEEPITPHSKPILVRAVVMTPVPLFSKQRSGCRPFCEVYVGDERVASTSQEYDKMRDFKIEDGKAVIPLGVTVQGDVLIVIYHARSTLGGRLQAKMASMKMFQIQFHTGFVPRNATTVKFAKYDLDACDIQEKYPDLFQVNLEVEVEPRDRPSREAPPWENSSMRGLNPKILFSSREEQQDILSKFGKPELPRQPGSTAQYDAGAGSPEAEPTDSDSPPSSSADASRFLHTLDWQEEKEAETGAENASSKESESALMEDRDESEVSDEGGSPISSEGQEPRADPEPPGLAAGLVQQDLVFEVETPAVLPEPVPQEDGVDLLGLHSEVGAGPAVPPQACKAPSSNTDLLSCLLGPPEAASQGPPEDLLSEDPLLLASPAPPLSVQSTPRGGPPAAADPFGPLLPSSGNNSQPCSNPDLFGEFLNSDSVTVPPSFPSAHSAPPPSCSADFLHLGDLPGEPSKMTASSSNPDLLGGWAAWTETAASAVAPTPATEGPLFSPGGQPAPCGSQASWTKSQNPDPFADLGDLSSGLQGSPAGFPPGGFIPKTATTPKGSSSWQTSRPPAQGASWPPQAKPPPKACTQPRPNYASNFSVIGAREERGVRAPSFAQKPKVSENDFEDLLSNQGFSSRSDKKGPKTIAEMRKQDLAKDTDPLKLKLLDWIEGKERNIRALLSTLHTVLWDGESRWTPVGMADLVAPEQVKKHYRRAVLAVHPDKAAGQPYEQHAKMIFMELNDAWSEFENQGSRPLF
Outline: as §1

[5] = biological target: T3, ALK (L1196M) (Homo sapiens, UniProt Q9UM73, L1196M); assay: scanMAX Kinase panel (DiscoverX), % control; type: binding; conditions: <35% = active
T3 construct: purchased DiscoverX
Outline: as §1

[6] = biological target: T4, CLK2 (Homo sapiens, UniProt P49760); assay: scanMAX Kinase panel (DiscoverX), % control; type: binding; conditions: <35% = active
T4 construct: purchased DiscoverX
Outline: as §1

T3 sequence (Q9UM73 19-1620 L1196M): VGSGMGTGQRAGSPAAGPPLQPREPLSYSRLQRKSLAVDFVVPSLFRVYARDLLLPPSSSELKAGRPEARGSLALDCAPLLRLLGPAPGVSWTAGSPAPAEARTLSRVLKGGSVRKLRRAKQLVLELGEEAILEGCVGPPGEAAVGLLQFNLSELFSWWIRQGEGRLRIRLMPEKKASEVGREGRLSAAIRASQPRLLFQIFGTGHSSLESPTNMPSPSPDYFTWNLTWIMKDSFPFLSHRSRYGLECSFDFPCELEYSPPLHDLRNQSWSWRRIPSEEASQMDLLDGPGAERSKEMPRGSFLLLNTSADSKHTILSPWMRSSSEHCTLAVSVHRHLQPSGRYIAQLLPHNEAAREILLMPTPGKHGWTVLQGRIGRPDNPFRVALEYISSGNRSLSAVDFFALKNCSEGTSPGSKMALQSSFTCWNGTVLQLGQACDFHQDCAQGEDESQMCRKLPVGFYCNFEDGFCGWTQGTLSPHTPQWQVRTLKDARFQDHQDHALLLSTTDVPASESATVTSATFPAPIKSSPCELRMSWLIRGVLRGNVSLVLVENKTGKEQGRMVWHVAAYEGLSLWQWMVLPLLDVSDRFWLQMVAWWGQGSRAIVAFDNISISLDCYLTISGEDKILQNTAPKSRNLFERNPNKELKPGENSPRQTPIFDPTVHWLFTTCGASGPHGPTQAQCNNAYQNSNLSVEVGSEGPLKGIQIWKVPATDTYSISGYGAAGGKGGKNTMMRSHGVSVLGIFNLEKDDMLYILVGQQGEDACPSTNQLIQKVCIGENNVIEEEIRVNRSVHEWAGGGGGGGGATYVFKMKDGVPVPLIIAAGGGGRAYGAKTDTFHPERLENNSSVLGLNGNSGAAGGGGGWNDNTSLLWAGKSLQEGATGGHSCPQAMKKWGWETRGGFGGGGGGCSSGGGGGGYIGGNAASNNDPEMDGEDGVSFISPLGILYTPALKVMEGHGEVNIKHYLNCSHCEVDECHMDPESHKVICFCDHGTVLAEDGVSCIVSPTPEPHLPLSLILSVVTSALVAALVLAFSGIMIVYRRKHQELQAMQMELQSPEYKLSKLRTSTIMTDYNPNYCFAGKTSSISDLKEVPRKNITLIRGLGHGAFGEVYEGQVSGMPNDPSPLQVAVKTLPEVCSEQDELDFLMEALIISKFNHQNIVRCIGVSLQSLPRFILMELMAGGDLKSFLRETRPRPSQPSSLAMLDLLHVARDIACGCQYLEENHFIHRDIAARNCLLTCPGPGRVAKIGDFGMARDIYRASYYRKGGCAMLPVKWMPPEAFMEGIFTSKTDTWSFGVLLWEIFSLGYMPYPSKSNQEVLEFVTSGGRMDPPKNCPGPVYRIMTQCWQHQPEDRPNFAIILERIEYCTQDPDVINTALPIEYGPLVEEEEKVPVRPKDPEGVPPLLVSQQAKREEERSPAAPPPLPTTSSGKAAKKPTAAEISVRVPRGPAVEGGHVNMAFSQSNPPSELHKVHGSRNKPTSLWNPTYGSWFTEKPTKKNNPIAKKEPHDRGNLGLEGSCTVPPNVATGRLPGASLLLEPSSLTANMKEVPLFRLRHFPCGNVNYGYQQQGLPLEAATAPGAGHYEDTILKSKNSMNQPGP
T4 sequence (P49760 whole entry): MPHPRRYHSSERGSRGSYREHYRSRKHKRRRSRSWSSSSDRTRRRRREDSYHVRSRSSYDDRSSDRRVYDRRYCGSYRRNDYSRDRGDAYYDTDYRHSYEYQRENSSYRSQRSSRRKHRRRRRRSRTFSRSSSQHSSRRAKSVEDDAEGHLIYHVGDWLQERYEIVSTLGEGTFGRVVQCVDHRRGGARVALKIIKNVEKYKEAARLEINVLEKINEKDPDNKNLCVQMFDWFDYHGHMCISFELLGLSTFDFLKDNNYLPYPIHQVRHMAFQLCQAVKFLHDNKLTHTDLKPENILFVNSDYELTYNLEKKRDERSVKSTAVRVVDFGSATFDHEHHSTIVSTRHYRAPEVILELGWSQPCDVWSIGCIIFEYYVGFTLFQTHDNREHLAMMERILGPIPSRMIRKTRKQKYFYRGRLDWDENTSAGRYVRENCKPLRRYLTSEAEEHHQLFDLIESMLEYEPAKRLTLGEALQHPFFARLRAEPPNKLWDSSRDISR

- GI50 [1]: 9.39 µM
- remaining binding at 1 µM [3]: 18%
- remaining binding at 1 µM [4]: 38%
- remaining binding at 1 µM [5]: 10%
- remaining binding at 1 µM [6]: 7.2%
SMILES: COCCNc1cc(Nc2ccc(P3(=O)CCN(C4CC4)CC3)cc2OC)nc2[nH]cc(C(F)(F)F)c12 [Example 207, 1-cyclopropyl-4-(3-methoxy-4-((4-((2-methoxyethyl)amino)-3-(trifluoromethyl)-1H-pyrrolo[2,3-b]pyridin-6-yl)amino)phenyl)-1,4-azaphosphinane 4-oxide]
- inhibition at 0.5 µM [2]: 39.8%
